Series [1] is described as follows: log P determination by HPLC on reverse-phase column (EEC directive 79/831 Annex V.A8). It counts as physicochemical. The settings on record: reverse-phase C18 HPLC column, acidic range (pH 2.3), 0.1% aqueous phosphoric acid/acetonitrile, 43° C. As for the experimental part: The log P values given in the table were determined in accordance with EEC directive 79/831 Annex V.A8 by HPLC (High Performance Liquid Chromatography) on a reverse-phase column (C 18). Temperature: 43° C. (a) Mobile phases for the determination in the acidic range (pH 2.3): 0.1% aqueous phosphoric acid, acetonitrile; linear gradient from 10% acetonitrile to 90% acetonitrile—the corresponding measurement results in table 1 are marked a). Calibration was carried out using unbranched alkan-2-ones (having 3 to 16 carbon atoms) with known log P values (determination of the log P values by the retention times using linear inter-polation between two successive alkanones).

Series [2] has as its system larvae of the mustard beetle (Phaedon cochleariae). The series can be described thus: Phaedon test (spray treatment). In kind it is in vivo. The settings on record: 500 g/ha, spray treatment of Chinese cabbage disks. As to the method: (§1) To produce a suitable preparation of active compound, 1 part by weight of active compound is mixed with the stated amounts of solvents and emulsifier, and the concentrate is diluted with emulsifier-containing water to the desired concentration. Disks of Chinese cabbage (Brassica pekinensis) are sprayed with a preparation of active compound of the desired concentration and, after drying, populated with larvae of the mustard beetle (Phaedon cochleariae). After the desired period of time, the effect in % is determined. 100% means that all beetle larvae have been killed; 0% means that none of the beetle larvae have been killed.

Series [3] has as its system caterpillars of the armyworm (Spodoptera frugiperda). The experiment in a line: Spodoptera frugiperda test (spray treatment). It counts as in vivo. The settings on record: 500 g/ha, spray treatment of corn leaf disks. As for the experimental part: as §1, with “corn leaves (Zea mays)” for “Chinese cabbage (Brassica pekinensis)”, “caterpillars” for “larvae”, “armyworm (Spodoptera frugiperda).” for “mustard beetle (Phaedon cochleariae).”, “caterpillars” for “beetle larvae”

In series [1], `N#CCNC(=O)c1cnncc1C(F)(F)F` [Example 1, N-cyanomethyl-5-trifluoromethylpyridazine-4-carboxamide] registered a chromatographic logP of 0.6.

Consider `O=C(NC(c1ccccc1)c1ccccn1)c1cnncc1C(F)(F)F` (stereo not shown) [Ia-59], for which the “Kill rate in % after 7 d” value in series [2] and in series [3] was 100% each time.

The molecule `COC(=O)c1cnncc1C(F)(F)F` [methyl 5-trifluoromethylpyridazine-4-carboxylate] showed a chromatographic logP in series [1] of 1.68.

The values are drawn from patent US20080214552A1, “Substituted Pyridazinecarboxamides and Derivatives Thereof” (priority 2004, published 2008).
